Source: PubChem BioAssay AID2060899 (Molecular Pharmacology Branch, DTP, NCI, 2025)

Test system: 565726-208-R1-J5-PDC complex spheroids, growth inhibition
Assay: Anticancer human tumor 565726-208-R1-J5-PDC patient-derived pancreatic adenocarcinoma cell line growth inhibition [RAS]
Settings: for IC50: curve of first compound; for viability, T/C: stronger effect = lower value; active means viability on the fitted dose curve at most 10% of control; inactive means the rest
Summary of the method: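 Agents were tested in combination matrices in half-log decrements from a top concentration at or near clinical Cmax (10 microM if undetermined). Targets were multi-cell spheroids of tumour lines plus HUVEC and MSC stromal cells.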

[1] = second compound 0.000949 µM, first compound 0.0316 µM
[2] = second compound 0.000949 µM, first compound 0.1 µM
[3] = second compound 0.000949 µM, first compound 0.316 µM
[4] = second compound 0.000949 µM, first compound 1 µM
[5] = second compound 0.000949 µM, first compound 3.16 µM
[6] = second compound 0.000949 µM, first compound 10 µM
[7] = second compound 0.003 µM, first compound 0.0316 µM
[8] = second compound 0.003 µM, first compound 0.1 µM
[9] = second compound 0.003 µM, first compound 0.316 µM
[10] = second compound 0.003 µM, first compound 1 µM
[11] = second compound 0.003 µM, first compound 3.16 µM
[12] = second compound 0.003 µM, first compound 10 µM
[13] = second compound 0.00949 µM, first compound 0.0316 µM
[14] = second compound 0.00949 µM, first compound 0.1 µM
[15] = second compound 0.00949 µM, first compound 0.316 µM
[16] = second compound 0.00949 µM, first compound 1 µM
[17] = second compound 0.00949 µM, first compound 3.16 µM
[18] = second compound 0.00949 µM, first compound 10 µM
[19] = second compound 0.03 µM, first compound 0.0316 µM
[20] = second compound 0.03 µM, first compound 0.1 µM
[21] = second compound 0.03 µM, first compound 0.316 µM
[22] = second compound 0.03 µM, first compound 1 µM
[23] = second compound 0.03 µM, first compound 3.16 µM
[24] = second compound 0.03 µM, first compound 10 µM
[25] = second compound 0.0949 µM, first compound 0.0316 µM
[26] = second compound 0.0949 µM, first compound 0.1 µM
[27] = second compound 0.0949 µM, first compound 0.316 µM
[28] = second compound 0.0949 µM, first compound 1 µM
[29] = second compound 0.0949 µM, first compound 3.16 µM
[30] = second compound 0.0949 µM, first compound 10 µM
[31] = second compound 0.3 µM, first compound 0.0316 µM
[32] = second compound 0.3 µM, first compound 0.1 µM
[33] = second compound 0.3 µM, first compound 0.316 µM
[34] = second compound 0.3 µM, first compound 1 µM
[35] = second compound 0.3 µM, first compound 3.16 µM
[36] = second compound 0.3 µM, first compound 10 µM
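Further: spheroids exposed to compounds for seven days before readout.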
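Wherever viability, T/C is given: 100% = DMSO vehicle control viability.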

CC(Nc1ccc2c(c1)OCCn1cc(N3C(=O)OCC3C(F)F)nc1-2)C(N)=O (centres undefined) + CCn1c(-c2cccnc2C(C)OC)c2c3cc(ccc31)N1CCOC(CC(NC(=O)C(C(C)C)N(C)C(=O)C3(F)CCN(C(=O)C#CC(C)(C)N(C)C)CC3)C(=O)N3CCCC(N3)C(=O)OCC(C)(C)C2)C1
7050 nM: IC50 (second compound 0.0949 µM)
8980 nM: IC50 (second compound 0.00949 µM)
8760 nM: IC50 (second compound 0.03 µM)
> 10000 nM: IC50 (second compound 0.000949 µM) | IC50 (second compound 0.003 µM)
2390 nM: IC50 (second compound 0.3 µM)
inactive: viability, T/C [1] 87.5% | viability, T/C [2] 80.8% | viability, T/C [3] 77.3% | viability, T/C [4] 72.8% | viability, T/C [5] 64.8% | viability, T/C [6] 50.7% | viability, T/C [7] 93.7% | viability, T/C [8] 88.4% | viability, T/C [9] 75% | viability, T/C [10] 75.9% | viability, T/C [11] 62.9% | viability, T/C [12] 52.9% | viability, T/C [13] 92.3% | viability, T/C [14] 91.2% | viability, T/C [15] 77.8% | viability, T/C [16] 77.6% | viability, T/C [17] 63.7% | viability, T/C [18] 47.7% | viability, T/C [19] 93% | viability, T/C [20] 85.6% | viability, T/C [21] 80.4% | viability, T/C [22] 71.1% | viability, T/C [23] 55.2% | viability, T/C [24] 49.9% | viability, T/C [25] 88.8% | viability, T/C [26] 82.4% | viability, T/C [27] 84.4% | viability, T/C [28] 65.9% | viability, T/C [29] 63% | viability, T/C [30] 44.8% | viability, T/C [31] 80% | viability, T/C [32] 72.8% | viability, T/C [33] 72% | viability, T/C [34] 63.7% | viability, T/C [35] 44.9% | viability, T/C [36] 38.2%

CC1(O)CCCC1n1c(=O)c(C(F)F)cc2cnc(NC3CCN(S(C)(=O)=O)CC3)nc21 (centres undefined) + CCn1c(-c2cc(N3CCN(C)CC3)cnc2C(C)OC)c2c3cc(ccc31)-c1csc(n1)CC(NC(=O)C1CC1C)C(=O)N1CCCC(N1)C(=O)OCC(C)(C)C2
< 31.6 nM: IC50 (second compound 0.003 µM) | IC50 (second compound 0.00949 µM) | IC50 (second compound 0.03 µM) | IC50 (second compound 0.0949 µM) | IC50 (second compound 0.3 µM)
active: viability, T/C [6] 3.21% | viability, T/C [12] 2.82% | viability, T/C [18] 3.34% | viability, T/C [24] 3.06% | viability, T/C [30] 2.88% | viability, T/C [36] 3.06%
inactive: viability, T/C [1] 58% | viability, T/C [2] 46.6% | viability, T/C [3] 47.6% | viability, T/C [4] 50.4% | viability, T/C [5] 33.1% | viability, T/C [7] 48.5% | viability, T/C [8] 45.7% | viability, T/C [9] 43.9% | viability, T/C [10] 37.1% | viability, T/C [11] 26.5% | viability, T/C [13] 41.4% | viability, T/C [14] 36.7% | viability, T/C [15] 37.6% | viability, T/C [16] 31.7% | viability, T/C [17] 25% | viability, T/C [19] 34.2% | viability, T/C [20] 29.8% | viability, T/C [21] 31.3% | viability, T/C [22] 31.2% | viability, T/C [23] 17.3% | viability, T/C [25] 25.7% | viability, T/C [26] 25.4% | viability, T/C [27] 26% | viability, T/C [28] 24.2% | viability, T/C [29] 15.3% | viability, T/C [31] 19.9% | viability, T/C [32] 25.7% | viability, T/C [33] 22% | viability, T/C [34] 24.2% | viability, T/C [35] 14.6%
1010 nM: IC50 (second compound 0.000949 µM)
